# Measured values as given in US9888679B2, “Protection of progenitor cells and regulation of their differentiation” (Proteobioactives Pty Ltd, priority 2007, dated 2018).
# Test system: murine progenitor cells (C3H10T1-2)
# Experiment: Proteoglycan synthesis in micromass cultures, 6 and 9 days
# Type: cell-based
# Conditions: FIG. 16
# Experimental: FIG. 16. A bar graph showing the concentration dependent effects of PPS on proteoglycan synthesis by murine progenitor cells (C3H10T1-2) in micromass cultures for 6 days and 9 days. PPS was included in the media (Ham's F12+10% FCS) and was changed every 48 hours. ^35S—SO4 was added 24 hours before culture termination. Synthesis normalized to DNA content. * P<0.05, **P<0.005, ***P<0.0005 relative to controls.
# The technique used was based on that described by (Denker A E, Haas A R, Nicoll S B and Tuan R S. Chondrogenic differentiation of murine C3H10T1/2 multipotential progenitor cells: I. Stimulation by bone morphogenetic protein-2 in high density micromass cultures. Differentiation (1999); 64: 67-76). Briefly murine Progenitor cells (cell lines C3H10T1/2 or ATDC5) purchased from RIKEN Cell Bank (Tsukuba, Japan) or human immunoselected Stro-1+ Progenitor cells (Mesoblast Ltd, Melbourne, Australia) Ten microlitres (10 μl) of a suspension of the progenitor cells (1×10^7 cells/ml in Ham's F12 medium+10% FBS) were applied to individual wells of a 24-well plates. […] The radioactivity of ^35S—SO4 incorporated the ^35S-GAG-CPC complexes was measured by scintillation counting. […]
substance,measurement,setting,value
pentosan polysulfate [PPS],uptake of 35S into newly synthesized PG,"1-20 micrograms/mL, micromass",Highly significant stimulation
same,stimulation of proteoglycan synthesis,"1 microgram/mL, nine days in micromass cultures",100%
